Experiments:
Format in all cases: in vivo
Conditions in all cases: 1000 g/ha, evaluated after 13 days
[1] = test system: Amaranthus palmeri (AMAPA); assay: Pre-emergence Test (Table B1)
[2] = test system: Echinochloa crus-galli (ECHCG); assay: Pre-emergence Test (Table B1); set-up: key: 5=81-100%; 4=61-80%; 3=41-60%; 2=21-40%; 1=0-20%; 0=inactive
[3] = test system: Echinochloa crus-galli (ECHCG); assay: Post-emergence Test (Table B2)
Description: (§1) Seeds of a variety of test species are sown in standard soil in pots (Amaranthus palmeri (AMAPA), Setaria faberi (SETFA), Echinochloa crus-galli (ECHCG), (Amaranthus retroflexus (AMARE), Zea mays (ZEAMX), Ipomoea hederacea (IPOHE)). After 8 days cultivation under controlled conditions in a glasshouse (at 24° C./16° C., day/night; 14 hours light; 65% humidity), the plants are sprayed with an aqueous spray solution derived from the formulation of the technical active ingredient in acetone/water (50:50) solution containing 0.5% Tween 20 (polyoxyethelyene sorbitan monolaurate, CAS RN 9005-64-5). Compounds are applied at 1000 g/ha unless otherwise stated. The test plants are then grown in a glasshouse under controlled conditions in a glasshouse (at 24° C./16° C., day/night; 14 hours light; 65% humidity) and watered twice daily. After 13 days the test is evaluated for the percentage damage caused to the plant.

[4] = test system: Ipomoea hederacea (IPOHE); assay: Post-emergence Test (Table B2)
Description: as §1

Zea mays (ZEAMX) [5] = assay: Post-emergence Test (Table B2)
Description: as §1

[6] = test system: Amaranthus retroflexus (AMARE); assay: Pre-emergence Test (Table B1)
[7] = test system: Ipomoea hederacea (IPOHE); assay: Pre-emergence Test (Table B1); set-up: key: 5=81-100%; 4=61-80%; 3=41-60%; 2=21-40%; 1=0-20%; 0=inactive
Setaria faberi (SETFA) [8] = assay: Pre-emergence Test (Table B1); set-up: key: 5=81-100%; 4=61-80%; 3=41-60%; 2=21-40%; 1=0-20%; 0=inactive
Zea mays (ZEAMX) [9] = assay: Pre-emergence Test (Table B1); set-up: key: 5=81-100%; 4=61-80%; 3=41-60%; 2=21-40%; 1=0-20%; 0=inactive
[10] = test system: Amaranthus palmeri (AMAPA); assay: Post-emergence Test (Table B2)
Description: as §1

[11] = test system: Amaranthus retroflexus (AMARE); assay: Post-emergence Test (Table B2)
Description: as §1

Setaria faberi (SETFA) [12] = assay: Post-emergence Test (Table B2)
Description: as §1

| Compound | percentage damage caused to the plant, AMAPA [1] | percentage damage caused to the plant, ECHCG [2] | percentage damage caused to the plant, ECHCG [3] | percentage damage caused to the plant, IPOHE [4] | percentage damage caused to the plant, ZEAMX (Zea mays (ZEAMX) [5]) | percentage damage caused to the plant, AMARE [6] | percentage damage caused to the plant, IPOHE [7] | percentage damage caused to the plant, SETFA (Setaria faberi (SETFA) [8]) | percentage damage caused to the plant, ZEAMX (Zea mays (ZEAMX) [9]) | percentage damage caused to the plant, AMAPA [10] | percentage damage caused to the plant, AMARE [11] | percentage damage caused to the plant, SETFA (Setaria faberi (SETFA) [12]) |
| --- | --- | --- | --- | --- | --- | --- | --- | --- | --- | --- | --- | --- |
| CCn1c(C)c(-c2cc(C(=O)OC(C)C3CC3)ccc2F)c(=O)c(C(=O)O)c1-c1ccc(Cl)c(Cl)c1 (stereo not drawn) [Compound 8, 5-[5-(1-cyclopropylethoxycarbonyl)-2-fluoro-phenyl]-2-(3,4-dichlorophenyl)-1-ethyl-6-methyl-4-oxo-pyridine-3-carboxylic acid] | 4 (4=61-80%) | 0 | 1 (1=0-20%) | 1 (1=0-20%) | 3 (3=41-60%) | 5 (5=81-100%) | 0 | 0 | 0 | 5 (5=81-100%) | 4 (4=61-80%) | 2 (2=21-40%) |
| CCn1c(C)c(-c2cc(C(=O)OC(C)CF)ccc2F)c(=O)c(C(=O)O)c1-c1ccc(Cl)c(Cl)c1 (stereo not drawn) [Compound 9, 2-(3,4-dichlorophenyl)-1-ethyl-5-[2-fluoro-5-(2-fluoro-1-methyl-ethoxy)carbonyl-phenyl]-6-methyl-4-oxo-pyridine-3-carboxylic acid] | 5 (5=81-100%) | 1 (1=0-20%) | 2 (2=21-40%) | 1 (1=0-20%) | 2 (2=21-40%) | 5 (5=81-100%) | 0 | 2 (2=21-40%) | 1 (1=0-20%) | 4 (4=61-80%) | 5 (5=81-100%) | 3 (3=41-60%) |
| CCn1c(C)c(-c2cc(C(=O)OC(C)C(C)=O)ccc2F)c(=O)c(C(=O)O)c1-c1ccc(Cl)c(Cl)c1 (stereo not drawn) [Compound 10, 2-(3,4-dichlorophenyl)-1-ethyl-5-[2-fluoro-5-(1-methyl-2-oxo-propoxy)carbonyl-phenyl]-6-methyl-4-oxo-pyridine-3-carboxylic acid] | 5 (5=81-100%) | 0 | 2 (2=21-40%) | 1 (1=0-20%) | 3 (3=41-60%) | 5 (5=81-100%) | 0 | 0 | 0 | 5 (5=81-100%) | 5 (5=81-100%) | 4 (4=61-80%) |
| CCC#CC(C)OC(=O)c1ccc(F)c(-c2c(C)n(CC)c(-c3ccc(Cl)c(Cl)c3)c(C(=O)O)c2=O)c1 (stereo not drawn) [Compound 11, 2-(3,4-dichlorophenyl)-1-ethyl-5-[2-fluoro-5-(1-methylpent-2-ynoxycarbonyl)phenyl]-6-methyl-4-oxo-pyridine-3-carboxylic acid] | 5 (5=81-100%) | 0 | 4 (4=61-80%) | 3 (3=41-60%) | 2 (2=21-40%) | 5 (5=81-100%) | 0 | 0 | 0 | 5 (5=81-100%) | 5 (5=81-100%) | 4 (4=61-80%) |
| C#CC(C)OC(=O)c1ccc(F)c(-c2c(C)n(CC)c(-c3ccc(Cl)c(Cl)c3)c(C(=O)O)c2=O)c1 (stereo not drawn) [Compound 12, 2-(3,4-dichlorophenyl)-1-ethyl-5-[2-fluoro-5-(1-methylprop-2-ynoxycarbonyl)phenyl]-6-methyl-4-oxo-pyridine-3-carboxylic acid] | 4 (4=61-80%) | 3 (3=41-60%) | 4 (4=61-80%) | 2 (2=21-40%) | 3 (3=41-60%) | 5 (5=81-100%) | 1 (1=0-20%) | 4 (4=61-80%) | 1 (1=0-20%) | 5 (5=81-100%) | 5 (5=81-100%) | 5 (5=81-100%) |
| C=CCC(C)OC(=O)c1ccc(F)c(-c2c(C)n(CC)c(-c3ccc(Cl)c(Cl)c3)c(C(=O)O)c2=O)c1 (stereo not drawn) [Compound 13, 2-(3,4-dichlorophenyl)-1-ethyl-5-[2-fluoro-5-(1-methylbut-3-enoxycarbonyl)phenyl]-6-methyl-4-oxo-pyridine-3-carboxylic acid] | 4 (4=61-80%) | 1 (1=0-20%) | 1 (1=0-20%) | 2 (2=21-40%) | 2 (2=21-40%) | 4 (4=61-80%) | 0 | 2 (2=21-40%) | 0 | 4 (4=61-80%) | 4 (4=61-80%) | 2 (2=21-40%) |
